In PubChem BioAssay (NCI):
Several values for one entry are separate records, joined by “and”; a condition that tells them apart may be missing. Equal values may be shown once.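 Values below derive from 48-hour exposures of cells grown in 96-well plates, with endpoints linearly interpolated between the two concentrations bracketing the appropriate inhibition level. GI50: concentration for 50% inhibition of growth. The concentration for full growth arrest is given as TGI.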

What was measured:
Assay in all cases: DTP human tumour cell line panel, 48 h
786-0 renal = test system: 786-0 renal
ACHN renal = test system: ACHN renal
EKVX NSCLC = test system: EKVX NSCLC
HL-60(TB) leukemia = test system: HL-60(TB) leukemia
OVCAR-4 ovarian = test system: OVCAR-4 ovarian
OVCAR-8 ovarian = test system: OVCAR-8 ovarian
SF-539 CNS = test system: SF-539 CNS
SK-MEL-5 melanoma = test system: SK-MEL-5 melanoma
SN12C renal = test system: SN12C renal
UACC-257 melanoma = test system: UACC-257 melanoma

Row | Structure (SMILES) | TGI (786-0 renal) | TGI (ACHN renal) | TGI (EKVX NSCLC) | TGI (HL-60(TB) leukemia) | TGI (OVCAR-4 ovarian) | TGI (OVCAR-8 ovarian) | TGI (SF-539 CNS) | TGI (SK-MEL-5 melanoma) | TGI (SN12C renal) | TGI (UACC-257 melanoma) | GI50 (786-0 renal) [nM] | GI50 (ACHN renal) [nM] | GI50 (EKVX NSCLC) [nM] | GI50 (HL-60(TB) leukemia) [nM] | GI50 (OVCAR-4 ovarian) [nM] | GI50 (OVCAR-8 ovarian) [nM] | GI50 (SF-539 CNS) [nM] | GI50 (SK-MEL-5 melanoma) [nM] | GI50 (SN12C renal) [nM] | GI50 (UACC-257 melanoma) [nM]
1 | COc1ccc(C(=O)C(CC2C(=O)CC(C)(C)C(C(=O)C(=O)Nc3c(C)cccc3C)C2=O)c2ccc(OC)cc2)cc1 (centres undefined) | > 100 µM | > 100 µM | > 100 µM | > 100 µM | > 100 µM | > 100 µM | > 100 µM | > 100 µM | > 100 µM | > 100 µM |  |  |  |  |  |  |  |  |  | 
2 | CCOC1=C2C(C)(CCC3[C@@]4(C)C=CC(=O)C(C)(C)C4CC(O)[C@@]23C)C(c2ccoc2)C1=O (some centres undefined) | 39.8 µM | 37.4 µM | 67.7 µM | 36.3 µM | > 100 µM | 44.3 µM | 41.7 µM | 29.5 µM | 58 µM | 99.3 µM |  |  |  |  |  |  |  |  |  | 
3 | Cc1ccc(C)c(N2C(=O)C(=O)c3c(C)ccc(C)c32)c1 | > 100 µM | 33.4 µM | > 100 µM | > 100 µM | > 100 µM | 51.5 µM | 36.4 µM | 41.2 µM | > 100 µM | 48.2 µM |  |  |  |  |  |  |  |  |  | 
4 | C=C(CN(C)C)C(=O)c1ccc(OC)cc1 | 5.78 µM | 3.01 µM | 44.8 µM | 0.631 µM | 22.1 µM | 3.17 µM | 9.56 µM | 18 µM | 7.1 µM | 11.6 µM |  |  |  |  |  |  |  |  |  | 
5 | O=C(Nc1ccc(Cl)cc1F)c1cc(Cl)ccc1O | 7.03 µM | > 88 µM | 8.27 µM | 1.96 µM | > 100 µM | > 37.2 µM | 4.58 µM | 0.529 µM | 3.95 µM | 6.89 µM | 1090 | 532 | 891 | 389 | 340 | 619 | 432 | 209 | 345 | 482
6 | COc1ccc2c(c1)c(-c1nc(-c3cn(C)c4ncccc34)cs1)cn2CCCCN1CCOCC1 | 3.44 µM | 2.99 µM | 4.77 µM | 4.37 µM | 4.94 µM | 5.43 µM | 3.02 µM | 3.06 µM | 9.22 µM | 3.28 µM | 1570 | 1590 | 1540 | 1840 | 1710 | 2300 | 1560 | 1670 | 3280 | 1660
7 | C/C=C/C=C\C(=O)C1c2cccc(O)c2C(=O)c2c(O)cc(C)cc21 (centres undefined) | 3.93 µM | 2.66 µM | 13.4 µM | 7.04 µM | 3.3 µM | 3.19 µM | 1.52 µM | 2.69 µM | 5.74 µM | 3.46 µM |  |  |  |  |  |  |  |  |  | 
8 | CCOC(=O)/C(=C/c1ccc(Cl)cc1)N(CC)CC | > 100 µM | > 100 µM | > 100 µM | > 100 µM | > 100 µM | > 100 µM | > 100 µM | > 100 µM | > 100 µM | > 100 µM |  |  |  |  |  |  |  |  |  | 
9 | C/C=C1\C[C@@H]2C(OC)Nc3cc(O)c(OC)cc3C(=O)N2C1 (some centres undefined) |  | 0.0294 µM | 0.105 µM and 0.0346 µM | 0.216 µM and 0.0852 µM | < 0.0172 µM and 0.0101 µM | 0.61 µM and 1.03 µM | 0.00892 µM and < 0.0283 µM | 0.00889 µM |  | 0.0413 µM and < 0.0126 µM | 5.29 |  | 17.6 | 2.26 | 3.55 | 8.04 | 3.15 | 3.27 | 6.25 | 
10 | Cc1cccc2c1NC(=O)C2(c1ccc(O)cc1)c1ccc(O)cc1 | 40.1 µM | > 100 µM | 98.9 µM | 39.6 µM | < 0.0174 µM | 13.7 µM | 45.8 µM | 33.2 µM | 15.4 µM | 49.2 µM | 17900 | 12400 | 16400 | 7640 | < 10 | < 19.2 | 17700 | 15900 | < 10 | 18400
11 | COc1ccc(OC)c(-c2cc(C(=O)O)c3cc4ccccc4cc3n2)c1 | > 100 µM | > 100 µM | > 100 µM | > 100 µM | > 100 µM | > 100 µM | > 100 µM | > 100 µM | > 100 µM | > 100 µM |  |  |  |  |  |  |  |  |  | 
12 | CS(=O)(=O)c1ccc(-c2[nH]c3ccc(F)cc3c2/C=N/NC(N)=S)cc1 | > 100 µM | > 100 µM | > 100 µM | 5.05 µM | > 100 µM | > 100 µM | > 100 µM | 11.9 µM | > 100 µM | > 100 µM | 605 | 2170 | 3940 | 396 | 13400 | 2760 | 1300 | 634 | 3140 | > 100000
13 | Cc1ccc(S(=O)(=O)NC(=O)C#CCOC2CCCCO2)cc1 (centres undefined) | > 100 µM | > 100 µM | > 100 µM | > 100 µM | > 100 µM | > 100 µM | > 100 µM | > 100 µM | > 100 µM | > 100 µM |  |  |  |  |  |  |  |  |  | 
14 | CCC[CH2][Ge]([CH2]CCC)([CH2]CCC)[O]C(=O)C(OC(C)=O)c1ccccc1 (centres undefined) | 22.8 µM | 19.8 µM | 9.37 µM | 2.09 µM | 20.2 µM | 22.8 µM | 22.3 µM | 11.6 µM | 24.9 µM | 11.5 µM | 6340 | 2760 |  | 314 | 166 | 9770 | 7630 | 774 | 7700 | 246
15 | CCCCCCCCCCCCCC(=O)OC1C(CO)OC(=O)C1O (centres undefined) | > 100 µM | > 100 µM | > 100 µM | > 100 µM | > 100 µM | > 100 µM | > 100 µM | > 100 µM | > 100 µM | > 100 µM |  |  |  |  |  |  |  |  |  | 
16 | CN1CCN(CCCN2c3ccccc3Sc3ccc(C(F)(F)F)cc32)CC1 | 3.33 µM and 16.1 µM and 21.6 µM | 4.67 µM and 23.3 µM and 24.7 µM | 10.8 µM and 27.9 µM and 28.3 µM | 4.92 µM and 17.7 µM and 22.7 µM | 12.5 µM and 21.6 µM and 26.6 µM | 3.36 µM and 33.4 µM and 30.5 µM | 4.12 µM and 18.6 µM and 20.1 µM | 3.04 µM and 4.34 µM and 6.17 µM | 12.8 µM and 22.2 µM and 26.1 µM | 3.73 µM and 3.75 µM and 6.55 µM | 1780 | 2100 | 2340 | 2780 | 3220 | 1700 | 1940 | 1650 | 2600 | 
